1 compound from patent US20220062299A1, “USE OF GLUCOCORTICOID STEROIDS IN PREVENTING AND TREATING CONDITIONS OF MUSCLE WASTING, AGING AND METABOLIC DISORDER” (NORTHWESTERN UNIVERSITY, priority 2018, published 2022) can be followed below.

Molecules are shown by their SMILES.

The assay has as its system Wildtype (WT) mice fed high-fat chow. As to the kind of experiment: Diet-induced obesity, wildtype mice on high-fat chow, 12 weeks. It counts as in vivo, mouse. As to the method:
(G) At the end of treatment, quadriceps muscles were isolated and exposed ex vivo to either 10 mM glucose or 1 mM palmitate-BSA in the presence of 1×/min electrical stimulation. […] Curves depict interquartile range and single values; histograms depict single values and mean±s.e.m.; n=10 mice/group in A-E; n=3 mice/group in F-H. *, P<0.05 vs same-diet vehicle control, 1-way ANOVA with Tukey's multi-comparison; #, P<0.05 vs vehicle, 2-way ANOVA test.
Metabolic cages. VO2 (ml/h/kg) and energy expenditure to body weight (kcal/h/kg) were assessed via indirect calorimetry using the TSE Automated Phenotyping System PhenoMaster (TSE system, Chesterfield, Mo.). Mice were singly housed in their home cages in an enclosed environmental chamber (part of the TSE system) with controlled temperature and light/dark cycles (12 hours each; 6 AM-6 PM). […] Measurements of CO2 production and O2 consumption occurred using the attached gas analyzer to assess energy expenditure. In addition, physical activity in three dimensions was monitored via infrared beam breaks through frames mounted on the perimeter of the metabolic cages. Enrichment items were omitted to avoid insulation from sensors and infrared light beam path obstruction. Results are expressed as 12 hour-period values (light/dark; 10 values per mouse). Metabolic cage assays were conducted blinded to treatment groups.
2-NBDG uptake assay and glycemia/lactate monitoring. 2-NBDG uptake assay in live myofibers was conducted adapting previously reported conditions (Zou et al., 2005). FDB muscles were collected and carefully treated with collagenase type II and hand pipetting to liberate single myofibers, following reported procedures (Demonbreun and McNally, 2015). Myofibers from two FDB muscles were collected in 1 ml Ringer's solution (for 1 l, 7.2 g NaCl, 0.17 g CaCl2, 0.37 g KCl; pH, 7.4). 200 μl of myofiber suspension were dispensed per well of chambered coverglass (#155382; Thermo Fisher, Waltham, Mass.) and imaged as baseline condition for both transmitted light (1 ms integration) and green fluorescent channels (100 ms integration) at the Zeiss Axio Observer A1 microscope, using 20× short-range objective and the ZEN 2 software (version 2011; Zeiss, Jena, Germany). Immediately after baseline imaging, myofibers were supplemented with 2 mM glucose (#D8375-1 g; Millipore Sigma, St Louis, Mo.) and 50 μM 2-NBDG (#11046; Cayman Chemical, Ann Arbor, Mich.). For insulin-dependent uptake, insulin (#12585014; Thermo Fisher, Waltham, Mass.) was added to a final […] concentration. To control Glut1-/Glut4-dependent uptake, negative control wells were further supplemented with 10 μM cytochalasin B (#C6762; Millipore Sigma, St Louis, Mo.). Myofibers were incubated for 30 minutes in a 37° C./10% CO2 incubator, then washed twice in Ringer's solution and immediately imaged in fresh Ringers' solution, using the same integration and objective settings used for pre-incubation pictures. 2-NBDG uptake was quantitated as relative fluorescent units, calculated as intra-myofiber fluorescence after incubation subtracted of average baseline fluorescence. Fluorescence intensity was quantitated through serial analysis of acquired images (3 areas of approximately 85 μm^2 were analyzed for average fluorescence value per myofiber; >10 myofibers were analyzed per mouse) with ImageJ software (Schneider et al., 2012). All glucose uptake assays were conducted blinded to treatment groups.
Glucose was measured in blood (first drop from tail venipuncture) or serum (5 μl of 1:2 dilution) with an AimStrip Plus glucometer system (Germaine Laboratories, San Antonio, Tex.) and expressed as mg/dl values. Lactate was measured in blood (second drop from tail venipuncture) or serum (5 μl of 1:2 dilution) with a Lactate Plus reader (Nova Biomedical, Waltham, Mass.) and expressed as mM values. Fasting glycemia was measured in mice after 4 hours fasting (7 AM-11 AM). […]

Where [1] appears, read: WT mice on high-fat chow, weekly prednisone, 12 weeks.

In the case of `C[C@]12C=CC(=O)C=C1CC[C@@H]1[C@@H]2C(=O)C[C@@]2(C)[C@H]1CC[C@]2(O)C(=O)CO` [prednisone, Prednisone], the “ATP and phosphocreatine production of quadriceps ex vivo” value (10 mM glucose or 1 mM palmitate-BSA, normal and high-fat diet, weekly prednisone 12 weeks) is reported as “higher levels”. Moreover, the “gain of body weight” value (WT mice on high-fat chow, once weekly prednisone 1 mg/kg i.p., 12 weeks, vs vehicle) is listed as “reduced”. In addition, under setting [1], the “accrual of whole-body fat mass and adipocyte mass in the ventral fat pad” value was “reduced”; the “endpoint grip strength and running endurance” value is “significant improvement”; the “gain of hyperglycemia (fasting blood glucose over time)” value is on record as “reduced”; the “retention of lean mass, myofiber mass and specific force” value is “improving”. In addition, the “ex vivo uptake of 2-NBDG in freshly isolated myofibers” value (WT mice on high-fat chow, weekly prednisone, 12 weeks, absence and presence of insulin) is “improved”. For the same compound, where the note is “WT mice on high-fat chow, weekly prednisone, 12 weeks, endpoint”, the “body-wide glucose homeostasis (glucose and insulin tolerance tests)” value is reported as “improved”. Besides, the “oxidative capacity and energy expenditure in the active phase (metabolic cage)” value (normal or high-fat diet chow, weekly prednisone, 12 weeks) is listed as “increased”.
